# Laboratory results taken from patent publication US20050037946A1, “Methods and compositions for treating cardiovascular disease using 1722, 10280, 59917, 85553, 10653, 9235, 21668, 17794, 2210, 6169, 10102, 21061, 17662, 1468, 12282, 6350, 9035, 1820, 23652, 7301, 8925, 8701, 3533, 9462, 9123, 12788, 17729, 65552, 1261, 21476, 33770, 9380, 2569654, 33556, 53656, …” (Millennium Pharmaceuticals, Inc., priority 2003, published 2005).
# Legend:
# [1] = humans; cited from earlier work
# [2] = tested on: RAW 264.7; conditions: RAW 264.7, through down-regulating the activation of Akt; cited from earlier work
# [3] = tested on: isolated rat arterioles; conditions: compared to basal tone; cited from earlier work
# [4] = tested on: glycine cleavage system; conditions: cited from earlier work
# [5] = tested on: 13886 mRNA; test: 13886 mRNA in aortas of treated rats (TaqMan); assay type: in vivo; conditions: seven days, vs vehicle treated controls, p<0.005 ANOVA
# Description: (§1) This example describes the TaqMan™ procedure. The Taqman™ procedure is a quantitative, reverse transcription PCR-based approach for detecting mRNA. The RT-PCR reaction exploits the 5′ nuclease activity of AmpliTaq Gold™ DNA Polymerase to cleave a TaqMan™ probe during PCR. Briefly, cDNA was generated from the samples of interest, e.g., heart, kidney, liver, skeletal muscle, and various vessels, and used as the starting material for PCR amplification. In addition to the 5′ and 3′ gene-specific primers, a gene-specific oligonucleotide probe (complementary to the region being amplified) was included in the reaction (i.e., the Taqman™ probe). […]
# (§2) During the PCR reaction, cleavage of the probe separates the reporter dye and the quencher dye, resulting in increased fluorescence of the reporter. Accumulation of PCR products is detected directly by monitoring the increase in fluorescence of the reporter dye. When the probe is intact, the proximity of the reporter dye to the quencher dye results in suppression of the reporter fluorescence. […]
# [6] = tested on: 6169 mRNA; test: 6169 mRNA in human primary hepatocytes (TaqMan); assay type: cell-based
# Description: as §1, §2
# [7] = tested on: 32345 mRNA; test: 32345 mRNA in HUVECs (TaqMan); assay type: cell-based, human
# Description: as §1, §2
# [8] = molecular target: 1722 (Protein Kinase C mu or PKD) (Homo sapiens, UniProt Q15139); conditions: Biochem Pharmacol. 2001; cited from earlier work
# [9] = tested on: 3533 mRNA; test: 3533 mRNA regulation by lipid lowering drugs (TaqMan)
# Description: (§3) This example describes the TaqMan™ procedure. The Taqman™ procedure is a quantitative, reverse transcription PCR-based approach for detecting mRNA. The RT-PCR reaction exploits the 5′ nuclease activity of AmpliTaq Gold™ DNA Polymerase to cleave a TaqMan™ probe during PCR. Briefly, cDNA was generated from the samples of interest, e.g., heart, kidney, liver, skeletal muscle, and various vessels, and used as the starting material for PCR amplification. In addition to the 5′ and 3′ gene-specific primers, a gene-specific oligonucleotide probe (complementary to the region being amplified) was included in the reaction (i.e., the Taqman™ probe). The TaqMan™ probe includes the oligonucleotide with a fluorescent reporter dye covalently linked to the 5′ end of the probe (such as FAM (6-carboxyfluorescein), TET (6-carboxy4,7,2′,7′-tetrachlorofluorescein), JOE (6-carboxy-4,5-dichloro-2,7-dimethoxyfluorescein), or VIC) and a quencher dye (TAMRA (6-carboxy-N,N,N′,N′-tetramethylrhodamine) at the 3′ end of the probe.
# (§4) During the PCR reaction, cleavage of the probe separates the reporter dye and the quencher dye, resulting in increased fluorescence of the reporter. Accumulation of PCR products is detected directly by monitoring the increase in fluorescence of the reporter dye. When the probe is intact, the proximity of the reporter dye to the quencher dye results in suppression of the reporter fluorescence. During PCR, if the target of interest is present, the probe specifically anneals between the forward and reverse primer sites. The 5′-3′ nucleolytic activity of the AmpliTaq™ Gold DNA Polymerase cleaves the probe between the reporter and the quencher only if the probe hybridizes to the target. The probe fragments are then displaced from the target, and polymerization of the strand continues. The 3′ end of the probe is blocked to prevent extension of the probe during PCR. […] RNA was prepared using the trizol method and treated with DNase to remove contaminating genomic DNA. cDNA was synthesized using standard techniques.
# [10] = tested on: 2569654 mRNA; test: 2569654 mRNA in marmoset models (TaqMan); assay type: in vivo
# Description: as §3, §4
# [11] = humans, betaine supplemented diets vs control group; cited from earlier work
# [12] = tested on: 966 mRNA; test: 966 mRNA in aortic arches of mice given captopril (TaqMan); assay type: in vivo; conditions: given for 6 or 12 weeks
# Description: as §1, §2
# [13] = tested on: 1510 mRNA; test: 1510 mRNA in aortic arches of ApoE knockout mice (TaqMan); assay type: in vivo; conditions: relative to abdominal aorta, 12 weeks
# Description: as §1, §2
# [14] = tested on: 6169 mRNA; test: 6169 mRNA in Marmoset livers (TaqMan); assay type: in vivo
# Description: as §1, §2
# [15] = tested on: 53656 mRNA; test: 53656 mRNA in livers of Marmosets (TaqMan); assay type: in vivo
# [16] = tested on: 8921 mRNA; test: 8921 mRNA expression in marmosets; assay type: in vivo
# [17] = tested on: 10653 mRNA; test: 10653 mRNA in livers of marmosets treated with lipid-lowering therapies (TaqMan); assay type: in vivo
# [18] = tested on: 10102 mRNA; test: 10102 mRNA regulation by lipid lowering drugs (TaqMan)
# [19] = tested on: 7301 mRNA; test: 7301 mRNA in livers of marmosets treated with lipid-lowering therapies (TaqMan); assay type: in vivo
# Description: as §1, §2
# [20] = tested on: 8701 mRNA; test: 8701 mRNA in livers of marmosets treated with lipid-lowering therapies (TaqMan); assay type: in vivo
# [21] = tested on: 9123 mRNA; test: 9123 mRNA in livers of marmosets treated with lipid-lowering therapies (TaqMan); assay type: in vivo
# Description: as §1, §2
# [22] = tested on: 9462 mRNA; test: 9462 mRNA regulation by lipid lowering drugs (TaqMan)
# Description: as §1, §2
# [23] = tested on: coronary arteries; conditions: disruption of microtubules; cited from earlier work
# [24] = tested on: 9380 mRNA; test: 9380 mRNA in livers of marmosets (TaqMan); assay type: in vivo
# [25] = tested on: 2552 mRNA; test: 2552 mRNA in marmoset livers (TaqMan); assay type: in vivo
# [26] = tested on: 1261 mRNA; test: 1261 mRNA in statically cultured or shear-stressed cells (TaqMan); assay type: cell-based
# Description: as §3, §4
# [27] = tested on: isolated hepatocytes; conditions: via the CCK-B receptor; cited from earlier work
# Sequence of 1722 (Protein Kinase C mu or PKD) (Q15139 whole entry): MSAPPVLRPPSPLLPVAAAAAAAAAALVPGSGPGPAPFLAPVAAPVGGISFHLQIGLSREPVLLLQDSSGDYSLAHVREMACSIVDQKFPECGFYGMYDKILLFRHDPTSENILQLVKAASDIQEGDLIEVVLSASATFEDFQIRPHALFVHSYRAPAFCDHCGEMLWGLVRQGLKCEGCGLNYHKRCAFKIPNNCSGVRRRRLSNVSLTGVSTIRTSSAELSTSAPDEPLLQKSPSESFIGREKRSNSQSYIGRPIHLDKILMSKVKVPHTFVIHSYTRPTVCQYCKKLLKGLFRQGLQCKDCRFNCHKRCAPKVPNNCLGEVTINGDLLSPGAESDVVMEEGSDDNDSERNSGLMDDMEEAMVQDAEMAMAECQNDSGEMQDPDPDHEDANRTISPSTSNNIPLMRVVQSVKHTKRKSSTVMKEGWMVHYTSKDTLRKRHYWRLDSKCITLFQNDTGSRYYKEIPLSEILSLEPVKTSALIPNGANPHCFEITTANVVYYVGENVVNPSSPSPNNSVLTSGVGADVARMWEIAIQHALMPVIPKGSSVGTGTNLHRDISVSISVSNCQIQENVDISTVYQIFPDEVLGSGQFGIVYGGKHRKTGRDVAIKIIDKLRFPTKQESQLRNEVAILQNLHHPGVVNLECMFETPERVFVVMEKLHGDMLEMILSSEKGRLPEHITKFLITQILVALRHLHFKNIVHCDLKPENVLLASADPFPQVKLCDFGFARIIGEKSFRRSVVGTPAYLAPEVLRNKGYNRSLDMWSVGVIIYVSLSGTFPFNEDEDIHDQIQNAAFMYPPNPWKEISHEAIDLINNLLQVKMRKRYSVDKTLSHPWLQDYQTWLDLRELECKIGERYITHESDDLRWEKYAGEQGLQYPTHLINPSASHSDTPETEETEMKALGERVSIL
compound,measurement,setting,value
CC1=C(/C=C/C(C)=C\C=C\C(C)=C\C(=O)O)C(C)(C)CCC1 [9-cis retinoic acid],lipid profile,[1],"increase total cholesterol, ILDL-cholesterol, apoB and triglyceride levels and decrease HDL-cholesterol"
CC1=C(/C=C/C(C)=C/C=C/C(C)=C\C(=O)O)C(C)(C)CCC1 [13-cis retinoic acid],lipid profile,[1],"increase total cholesterol, ILDL-cholesterol, apoB and triglyceride levels and decrease HDL-cholesterol"
CCCCCCCCCCCCC/C=C/[C@@H](O)[C@H](CO)NC(C)=O [C(2)-ceramide],LPS-induced NO production,[2],inhibit
COc1cc2c(c(OC)c1OC)-c1ccc(OC)c(=O)cc1[C@@H](NC(C)=O)CC2 [Colchicine],vasoconstriction,[3],33.9%
NCCS [Cysteamine],inhibition of the glycine cleavage system,[4],potent inhibitor
COC(=O)[C@@H](N)CCCNC(=N)N[N+](=O)[O-] [L-NAME],expression of 13886 mRNA,[5],significantly down-regulated
CC[C@H](C)C(=O)O[C@H]1CCC=C2C=C[C@H](C)[C@H](CC[C@@H]3C[C@@H](O)CC(=O)O3)[C@H]21 [Mevastatin],6169 mRNA upregulated,[6],2.4 fold
same,32345 mRNA expression,[7],upregulated
Oc1ccc(C=Cc2cc(O)cc(O)c2)cc1 [Resveratrol],autophosphorylation of 1722,[8],inhibit
N[C@@H](Cc1cc(I)c(Oc2ccc(O)c(I)c2)c(I)c1)C(=O)O [T3],3533 mRNA expression,[9],downregulated
same,2569654 mRNA expression,[10],upregulated
"C[N+](C)(C)CC(=O)[O-] [betaine, trimethylglycine]",plasma homocysteine concentration,[11],decrease
same,total and LDL cholesterol concentration,[11],small but significant increase
C[C@H](CS)C(=O)N1CCC[C@H]1C(=O)O [captopril],upregulation of 966 mRNA in mice aortic arches,[12],inhibited
same,elevated expression of 1510 mRNA in aortic arches of ApoE knockout mice,[13],blocked
COCc1c(C(C)C)nc(C(C)C)c(/C=C/[C@@H](O)C[C@@H](O)CC(=O)O)c1-c1ccc(F)cc1 [cerivastatin],6169 mRNA upregulated,[14],2.4 fold
same,53656 mRNA upregulated,[15],1.4 fold
same,increase in 8921 mRNA expression,[16],1.4 fold
CN[C@H]1CCc2cc(OC)c(OC)c(OC)c2-c2ccc(OC)c(=O)cc21 [demecolcine],vasoconstriction,[3],32.7%
Cc1ccc(C)c(OCCCC(C)(C)C(=O)O)c1 [gemfibrozil],10653 mRNA expression,[17],downregualted
same,10102 mRNA expression,[18],significantly upregulated
same,7301 mRNA expression,[19],down-reregulated
same,8701 mRNA expression,[20],upregulated
same,9123 mRNA expression,[21],upregulated
O=C(O)c1cccnc1 [niacin],10102 mRNA expression,[18],significantly upregulated
same,3533 mRNA expression,[9],significantly downregulated
same,9462 mRNA expression,[22],upregulated
same,2569654 mRNA expression,[10],upregulated
COC(=O)Nc1nc2ccc(C(=O)c3cccs3)cc2[nH]1 [nocodazole],vasoconstriction,[3],29.6%
same,vascular tension and intracellular calcium levels,[23],increases
CC(C)(Sc1cc(C(C)(C)C)c(O)c(C(C)(C)C)c1)Sc1cc(C(C)(C)C)c(O)c(C(C)(C)C)c1 [probucol],10653 mRNA expression,[17],downregualted
same,10102 mRNA expression,[18],significantly upregulated
same,7301 mRNA expression,[19],down-reregulated
same,9123 mRNA expression,[21],upregulated
same,9380 mRNA expression,[24],upregulated
same,2552 mRNA expression,[25],upregulated
IL-1β,1261 expression in response to angiogenic/inflammatory stimuli,[26],transient upregulation
TNF-α,1261 expression in response to angiogenic/inflammatory stimuli,[26],transient upregulation
VEGF,1261 expression in response to angiogenic/inflammatory stimuli,[26],transient upregulation
same,"1261 mRNA expression, timecourse","[26]; 1 hour of treatment, statically cultured or shear-stressed cells",strong upregulation
same,1261 mRNA expression,[26]; VEGF individually,upregulated
cholesystkinin-8 [CCK-8],reduction of triacylglycerol secretion,[27],53%
